Data taken from publication PMC4844702, “Selective inhibition of the kinase DYRK1A by targeting its folding process” (Nature Communications, 2016).

Assays:
Test in all cases: Kinase panel (Carna)
Format in all cases: biochemical
[1] = target: T1, ACK (Homo sapiens, UniProt Q07912)
T1 construct: purchased Carna Biosciences
Description: (§1) Detailed information on the assay conditions is available on the website of Carna Biosciences (http://www.carnabio.com).

[2] = target: T2, FLT1 (Homo sapiens, UniProt P17948)
T2 construct: purchased Carna Biosciences
Description: as §1

[3] = target: T3, HCK (Homo sapiens, UniProt P08631)
T3 construct: purchased Carna Biosciences
Description: as §1

[4] = target: T4, HER4 (Homo sapiens, UniProt Q15303)
T4 construct: purchased Carna Biosciences
Description: as §1

[5] = target: T5, ITK (Homo sapiens, UniProt Q08881)
T5 construct: purchased Carna Biosciences
Description: as §1

[6] = target: T6, TXK (Homo sapiens, UniProt P42681)
T6 construct: purchased Carna Biosciences
Description: as §1

[7] = target: T7, TYK2 (Homo sapiens, UniProt P29597)
T7 construct: purchased Carna Biosciences
Description: as §1

[8] = target: T8, YES (Homo sapiens, UniProt P07947)
T8 construct: purchased Carna Biosciences
Description: as §1

[9] = target: T9, AKT2 (Homo sapiens, UniProt P31751)
T9 construct: purchased Carna Biosciences
Description: as §1

[10] = target: T10, AMPKα1/β1/γ1 (Homo sapiens, UniProt Q13131)
T10 construct: purchased Carna Biosciences
Description: as §1

[11] = target: T11, AMPKα2/β1/γ1 (Homo sapiens, UniProt P54646)
T11 construct: purchased Carna Biosciences
Description: as §1

[12] = target: T12, CaMK1δ (Homo sapiens, UniProt Q8IU85)
T12 construct: purchased Carna Biosciences
Description: as §1

[13] = target: T13, CaMK2α (Homo sapiens, UniProt Q9UQM7)
T13 construct: purchased Carna Biosciences
Description: as §1

[14] = target: T14, CDK4/CycD3 (Homo sapiens, UniProt P11802)
T14 construct: purchased Carna Biosciences
Description: as §1

[15] = target: T15, CGK2 (Homo sapiens, UniProt Q13237)
T15 construct: purchased Carna Biosciences
Description: as §1

[16] = target: T16, CHK2 (Homo sapiens, UniProt O96017)
T16 construct: purchased Carna Biosciences

[17] = target: T17, CK1γ2 (Homo sapiens, UniProt P78368)
T17 construct: purchased Carna Biosciences

[18] = target: T18, CK1δ (Homo sapiens, UniProt P48730)
T18 construct: purchased Carna Biosciences

[19] = target: T19, COT_Cascade (Homo sapiens, UniProt P41279)
T19 construct: purchased Carna Biosciences

[20] = target: T20, CRIK (Homo sapiens, UniProt O14578)
T20 construct: purchased Carna Biosciences

[21] = target: T21, MAP4K2 (Homo sapiens, UniProt Q12851)
T21 construct: purchased Carna Biosciences
Description: as §1

[22] = target: T22, Erk5 (Homo sapiens, UniProt Q13164)
T22 construct: purchased Carna Biosciences

[23] = target: T23, MAPKAPK5 (Homo sapiens, UniProt Q8IW41)
T23 construct: purchased Carna Biosciences

[24] = target: T24, MLK3_Cascade (Homo sapiens, UniProt Q16584)
T24 construct: purchased Carna Biosciences
Description: as §1

[25] = target: T25, MNK1 (Homo sapiens, UniProt Q9BUB5)
T25 construct: purchased Carna Biosciences

[26] = target: T26, MSSK1 (Homo sapiens, UniProt Q9UPE1)
T26 construct: purchased Carna Biosciences
Description: as §1

[27] = target: T27, NEK6 (Homo sapiens, UniProt Q9HC98)
T27 construct: purchased Carna Biosciences

[28] = target: T28, p38γ (Homo sapiens, UniProt P53778)
T28 construct: purchased Carna Biosciences
Description: as §1

[29] = target: T29, p38δ (Homo sapiens, UniProt O15264)
T29 construct: purchased Carna Biosciences
Description: as §1

[30] = target: T30, PAK2 (Homo sapiens, UniProt Q13177)
T30 construct: purchased Carna Biosciences
Description: as §1

[31] = target: T31, PAK3 (Homo sapiens, UniProt O75914)
T31 construct: purchased Carna Biosciences
Description: as §1

[32] = target: T32, PDHK2 (Homo sapiens, UniProt Q15119)
T32 construct: purchased Carna Biosciences
Description: as §1

[33] = target: T33, PKACβ (Homo sapiens, UniProt P22694)
T33 construct: purchased Carna Biosciences

[34] = target: T34, PKCα (Homo sapiens, UniProt P17252)
T34 construct: purchased Carna Biosciences

[35] = target: T35, PKCβ2 (Homo sapiens, UniProt P05771)
T35 construct: purchased Carna Biosciences
Description: as §1

[36] = target: T36, TSSK3 (Homo sapiens, UniProt Q96PN8)
T36 construct: purchased Carna Biosciences
Description: as §1

[37] = target: T37, WNK1 (Homo sapiens, UniProt Q9H4A3)
T37 construct: purchased Carna Biosciences
Description: as §1

[38] = target: T38, PKD2 (Homo sapiens, UniProt Q9BZL6)
T38 construct: purchased Carna Biosciences
Description: as §1

[39] = target: T39, PKN1 (Homo sapiens, UniProt Q16512)
T39 construct: purchased Carna Biosciences

[40] = target: T40, ROCK2 (Homo sapiens, UniProt O75116)
T40 construct: purchased Carna Biosciences

[41] = target: T41, RSK3 (Homo sapiens, UniProt Q15349)
T41 construct: purchased Carna Biosciences

[42] = target: T42, SIK (Homo sapiens, UniProt P57059)
T42 construct: purchased Carna Biosciences

[43] = target: T43, skMLCK (Homo sapiens, UniProt Q9H1R3)
T43 construct: purchased Carna Biosciences

[44] = target: T44, SRPK1 (Homo sapiens, UniProt Q96SB4)
T44 construct: purchased Carna Biosciences
Description: as §1

[45] = target: T45, WNK2 (Homo sapiens, UniProt Q9Y3S1)
T45 construct: purchased Carna Biosciences
Description: as §1

T9 sequence (P31751 whole entry): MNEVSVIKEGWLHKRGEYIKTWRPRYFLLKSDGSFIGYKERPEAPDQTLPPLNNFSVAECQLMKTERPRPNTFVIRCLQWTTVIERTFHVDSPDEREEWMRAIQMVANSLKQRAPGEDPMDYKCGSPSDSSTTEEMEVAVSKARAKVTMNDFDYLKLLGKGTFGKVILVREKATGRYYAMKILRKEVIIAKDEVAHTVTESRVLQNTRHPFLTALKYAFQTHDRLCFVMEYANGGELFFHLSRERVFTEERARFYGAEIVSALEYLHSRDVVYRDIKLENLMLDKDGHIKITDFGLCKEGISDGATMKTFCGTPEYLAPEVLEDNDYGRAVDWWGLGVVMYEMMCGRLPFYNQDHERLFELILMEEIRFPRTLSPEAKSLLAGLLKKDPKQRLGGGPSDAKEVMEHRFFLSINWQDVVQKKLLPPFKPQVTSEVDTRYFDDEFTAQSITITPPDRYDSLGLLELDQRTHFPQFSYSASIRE
T7 sequence (P29597 whole entry): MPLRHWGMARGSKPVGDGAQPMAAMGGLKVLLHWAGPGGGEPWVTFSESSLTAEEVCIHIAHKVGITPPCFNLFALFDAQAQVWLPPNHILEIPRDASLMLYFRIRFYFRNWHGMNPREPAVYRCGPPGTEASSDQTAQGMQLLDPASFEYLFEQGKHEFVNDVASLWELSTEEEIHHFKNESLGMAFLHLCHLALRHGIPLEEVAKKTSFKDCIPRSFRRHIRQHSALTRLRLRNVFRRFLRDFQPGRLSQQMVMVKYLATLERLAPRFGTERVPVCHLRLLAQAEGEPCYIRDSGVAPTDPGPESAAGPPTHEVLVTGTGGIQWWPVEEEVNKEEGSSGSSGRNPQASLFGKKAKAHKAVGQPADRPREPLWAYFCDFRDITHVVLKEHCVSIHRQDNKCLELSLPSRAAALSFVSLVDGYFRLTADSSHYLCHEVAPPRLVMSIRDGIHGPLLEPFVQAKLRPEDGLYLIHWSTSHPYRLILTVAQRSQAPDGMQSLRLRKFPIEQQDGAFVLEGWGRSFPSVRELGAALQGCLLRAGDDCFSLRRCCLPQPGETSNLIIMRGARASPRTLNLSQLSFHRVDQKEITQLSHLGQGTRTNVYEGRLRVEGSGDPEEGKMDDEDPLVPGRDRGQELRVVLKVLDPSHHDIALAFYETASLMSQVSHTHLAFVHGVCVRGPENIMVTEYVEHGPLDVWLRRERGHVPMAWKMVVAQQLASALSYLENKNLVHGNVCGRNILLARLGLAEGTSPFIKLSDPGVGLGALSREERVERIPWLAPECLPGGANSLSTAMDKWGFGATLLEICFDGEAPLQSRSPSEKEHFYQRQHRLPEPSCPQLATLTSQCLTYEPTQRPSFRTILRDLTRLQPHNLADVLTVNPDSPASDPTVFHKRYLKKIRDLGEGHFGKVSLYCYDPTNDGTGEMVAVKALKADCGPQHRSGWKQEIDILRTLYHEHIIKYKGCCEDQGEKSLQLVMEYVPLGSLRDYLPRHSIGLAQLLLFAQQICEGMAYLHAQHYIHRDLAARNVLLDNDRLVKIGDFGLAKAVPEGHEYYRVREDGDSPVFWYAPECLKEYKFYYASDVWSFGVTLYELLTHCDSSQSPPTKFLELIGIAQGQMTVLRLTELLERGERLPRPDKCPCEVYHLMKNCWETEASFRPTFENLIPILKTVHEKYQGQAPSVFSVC
T27 sequence (Q9HC98 whole entry): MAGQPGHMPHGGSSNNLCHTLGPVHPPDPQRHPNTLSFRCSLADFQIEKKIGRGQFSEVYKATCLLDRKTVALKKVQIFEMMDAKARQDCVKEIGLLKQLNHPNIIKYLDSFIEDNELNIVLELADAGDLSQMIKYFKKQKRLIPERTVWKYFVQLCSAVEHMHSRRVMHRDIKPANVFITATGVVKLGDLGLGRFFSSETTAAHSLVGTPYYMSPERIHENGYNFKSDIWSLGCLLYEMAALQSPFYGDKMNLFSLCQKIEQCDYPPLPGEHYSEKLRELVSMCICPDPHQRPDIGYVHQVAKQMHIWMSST
T24 sequence (Q16584 whole entry): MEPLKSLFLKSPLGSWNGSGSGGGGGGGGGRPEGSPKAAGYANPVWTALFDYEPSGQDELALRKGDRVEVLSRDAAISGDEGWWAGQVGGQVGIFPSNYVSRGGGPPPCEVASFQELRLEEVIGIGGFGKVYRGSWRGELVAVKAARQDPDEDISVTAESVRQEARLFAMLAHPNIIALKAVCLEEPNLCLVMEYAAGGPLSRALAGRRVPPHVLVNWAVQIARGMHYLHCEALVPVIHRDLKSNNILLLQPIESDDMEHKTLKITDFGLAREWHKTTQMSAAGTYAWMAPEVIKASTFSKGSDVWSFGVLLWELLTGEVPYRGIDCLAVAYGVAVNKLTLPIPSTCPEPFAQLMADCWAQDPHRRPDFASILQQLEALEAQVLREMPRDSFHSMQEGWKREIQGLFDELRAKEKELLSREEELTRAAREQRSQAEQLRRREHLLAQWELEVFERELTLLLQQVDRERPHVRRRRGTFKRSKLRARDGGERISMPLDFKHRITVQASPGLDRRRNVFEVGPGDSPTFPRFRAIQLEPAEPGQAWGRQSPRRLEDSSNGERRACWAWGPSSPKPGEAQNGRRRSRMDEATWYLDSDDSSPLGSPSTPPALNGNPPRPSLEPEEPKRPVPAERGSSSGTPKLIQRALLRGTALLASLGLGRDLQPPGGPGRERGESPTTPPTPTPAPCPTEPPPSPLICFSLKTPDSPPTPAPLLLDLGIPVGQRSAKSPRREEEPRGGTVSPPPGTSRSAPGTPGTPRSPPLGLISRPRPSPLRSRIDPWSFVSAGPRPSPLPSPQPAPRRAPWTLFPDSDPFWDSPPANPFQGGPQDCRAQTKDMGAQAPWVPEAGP
T13 sequence (Q9UQM7 whole entry): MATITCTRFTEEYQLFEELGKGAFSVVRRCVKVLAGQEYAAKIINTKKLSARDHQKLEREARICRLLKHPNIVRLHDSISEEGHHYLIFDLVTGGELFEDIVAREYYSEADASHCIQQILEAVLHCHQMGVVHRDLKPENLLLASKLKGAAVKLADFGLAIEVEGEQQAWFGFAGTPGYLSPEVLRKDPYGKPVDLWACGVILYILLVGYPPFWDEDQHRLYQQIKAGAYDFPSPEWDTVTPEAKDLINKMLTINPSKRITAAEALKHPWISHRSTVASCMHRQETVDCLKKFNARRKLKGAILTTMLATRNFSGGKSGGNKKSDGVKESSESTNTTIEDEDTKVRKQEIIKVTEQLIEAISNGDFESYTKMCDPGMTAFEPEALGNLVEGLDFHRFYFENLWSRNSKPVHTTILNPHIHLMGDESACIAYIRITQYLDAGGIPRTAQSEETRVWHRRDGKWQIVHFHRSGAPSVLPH
T28 sequence (P53778 whole entry): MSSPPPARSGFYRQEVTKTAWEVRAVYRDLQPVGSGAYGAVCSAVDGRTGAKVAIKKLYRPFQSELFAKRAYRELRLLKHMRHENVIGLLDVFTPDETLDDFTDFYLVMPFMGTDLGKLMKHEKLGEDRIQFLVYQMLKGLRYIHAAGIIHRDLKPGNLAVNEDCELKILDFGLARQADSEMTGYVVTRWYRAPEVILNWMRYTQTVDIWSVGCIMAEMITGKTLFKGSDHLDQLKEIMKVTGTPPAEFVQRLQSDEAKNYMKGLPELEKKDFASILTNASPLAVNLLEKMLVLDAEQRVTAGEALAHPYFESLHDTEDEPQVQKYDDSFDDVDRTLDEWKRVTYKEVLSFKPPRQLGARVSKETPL
T21 sequence (Q12851 whole entry): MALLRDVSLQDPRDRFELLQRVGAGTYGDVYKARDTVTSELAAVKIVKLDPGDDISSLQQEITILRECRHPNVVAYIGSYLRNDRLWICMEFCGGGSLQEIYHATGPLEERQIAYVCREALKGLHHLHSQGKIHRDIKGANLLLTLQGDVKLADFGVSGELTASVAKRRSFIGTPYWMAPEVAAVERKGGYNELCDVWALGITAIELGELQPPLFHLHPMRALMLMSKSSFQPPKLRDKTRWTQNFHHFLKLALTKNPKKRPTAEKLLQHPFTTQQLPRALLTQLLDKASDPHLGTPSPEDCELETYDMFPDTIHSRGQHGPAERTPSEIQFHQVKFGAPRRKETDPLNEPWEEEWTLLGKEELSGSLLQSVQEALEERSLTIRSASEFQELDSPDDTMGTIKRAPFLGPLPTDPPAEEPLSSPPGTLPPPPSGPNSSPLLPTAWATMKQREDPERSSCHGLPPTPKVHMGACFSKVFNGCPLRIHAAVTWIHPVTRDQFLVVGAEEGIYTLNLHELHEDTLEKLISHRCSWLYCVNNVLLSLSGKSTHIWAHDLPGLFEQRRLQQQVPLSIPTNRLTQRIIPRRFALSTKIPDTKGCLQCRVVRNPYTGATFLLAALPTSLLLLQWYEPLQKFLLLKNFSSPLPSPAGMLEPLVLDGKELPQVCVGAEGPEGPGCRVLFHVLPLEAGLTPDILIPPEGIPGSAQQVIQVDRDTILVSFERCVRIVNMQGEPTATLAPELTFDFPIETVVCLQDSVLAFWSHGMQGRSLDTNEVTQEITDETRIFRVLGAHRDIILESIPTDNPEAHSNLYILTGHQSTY
T3 sequence (P08631 whole entry): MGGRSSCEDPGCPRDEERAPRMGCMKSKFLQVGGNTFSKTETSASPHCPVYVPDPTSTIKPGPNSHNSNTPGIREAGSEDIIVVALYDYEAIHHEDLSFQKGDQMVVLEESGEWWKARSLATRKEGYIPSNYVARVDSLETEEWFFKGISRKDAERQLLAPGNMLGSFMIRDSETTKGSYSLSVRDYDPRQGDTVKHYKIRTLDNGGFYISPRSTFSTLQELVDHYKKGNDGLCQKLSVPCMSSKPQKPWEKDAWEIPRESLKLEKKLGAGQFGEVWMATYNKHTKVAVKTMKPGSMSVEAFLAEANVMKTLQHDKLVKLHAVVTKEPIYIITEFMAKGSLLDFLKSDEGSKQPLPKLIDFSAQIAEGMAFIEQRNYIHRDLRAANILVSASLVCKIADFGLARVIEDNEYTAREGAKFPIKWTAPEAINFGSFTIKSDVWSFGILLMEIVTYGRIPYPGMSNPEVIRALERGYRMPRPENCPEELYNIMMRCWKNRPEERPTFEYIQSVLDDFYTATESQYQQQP

## COc1ccc(/C=C2\SC(=S)NC2=O)cc1C#C[Si](C)(C)C [FINDY]
[1]
  inhibition at 10 µM: -2.2%
[2]
  inhibition at 10 µM: 6.6%
[3]
  inhibition at 10 µM: 35.3%
[4]
  inhibition at 10 µM: -13.4%
[5]
  inhibition at 10 µM: 1.2%
[6]
  inhibition at 10 µM: 23.7%
[7]
  inhibition at 10 µM: -5.4%
[8]
  inhibition at 10 µM: 6.4%
[9]
  inhibition at 10 µM: 23.5%
[10]
  inhibition at 10 µM: 8.6%
[11]
  inhibition at 10 µM: 1.7%
[12]
  inhibition at 10 µM: 7.2%
[13]
  inhibition at 10 µM: -6.9%
[14]
  inhibition at 10 µM: 8%
[15]
  inhibition at 10 µM: 14.6%
[16]
  inhibition at 10 µM: 6.3%
[17]
  inhibition at 10 µM: 27.7%
[18]
  inhibition at 10 µM: 29.1%
[19]
  inhibition at 10 µM: 55.4%
[20]
  inhibition at 10 µM: 1.9%
[21]
  inhibition at 10 µM: 3.3%
[22]
  inhibition at 10 µM: -4%
[23]
  inhibition at 10 µM: 5.2%
[24]
  inhibition at 10 µM: 40.5%
[25]
  inhibition at 10 µM: 6.2%
[26]
  inhibition at 10 µM: 6.6%
[27]
  inhibition at 10 µM: 23.6%
[28]
  inhibition at 10 µM: 5%
[29]
  inhibition at 10 µM: 11.9%
[30]
  inhibition at 10 µM: -2.5%
[31]
  inhibition at 10 µM: -14.7%
[32]
  inhibition at 10 µM: 14.1%
[33]
  inhibition at 10 µM: 65.3%
[34]
  inhibition at 10 µM: 0.6%
[35]
  inhibition at 10 µM: -2.3%
[36]
  inhibition at 10 µM: 20.3%
[37]
  inhibition at 10 µM: 12.6%
[38]
  inhibition at 10 µM: 29.9%
[39]
  inhibition at 10 µM: -0.9%
[40]
  inhibition at 10 µM: -2%
[41]
  inhibition at 10 µM: 28%
[42]
  inhibition at 10 µM: 15%
[43]
  inhibition at 10 µM: 2%
[44]
  inhibition at 10 µM: 7.5%
[45]
  inhibition at 10 µM: 12.3%
